These results are taken from article PMC3070790 (Bioorganic & medicinal chemistry letters, 2011).

“Also recorded” adds a separate entry of the source. Read-outs that look alike come from different tables or passages of the source.

The target in test [1] is T1, light chain of BoNT serotype A (LC/A) (Clostridium botulinum, UniProt P0DPI1). The following applies: cited from earlier work.
Test [2] addresses T1, light chain of BoNT serotype A (LC/A). It is filed as biochemical.
Test [3] concerns primary rat cerebellar neurons. It is filed as cell-based.

T1 sequence (P0DPI1 2-448 limits assumed): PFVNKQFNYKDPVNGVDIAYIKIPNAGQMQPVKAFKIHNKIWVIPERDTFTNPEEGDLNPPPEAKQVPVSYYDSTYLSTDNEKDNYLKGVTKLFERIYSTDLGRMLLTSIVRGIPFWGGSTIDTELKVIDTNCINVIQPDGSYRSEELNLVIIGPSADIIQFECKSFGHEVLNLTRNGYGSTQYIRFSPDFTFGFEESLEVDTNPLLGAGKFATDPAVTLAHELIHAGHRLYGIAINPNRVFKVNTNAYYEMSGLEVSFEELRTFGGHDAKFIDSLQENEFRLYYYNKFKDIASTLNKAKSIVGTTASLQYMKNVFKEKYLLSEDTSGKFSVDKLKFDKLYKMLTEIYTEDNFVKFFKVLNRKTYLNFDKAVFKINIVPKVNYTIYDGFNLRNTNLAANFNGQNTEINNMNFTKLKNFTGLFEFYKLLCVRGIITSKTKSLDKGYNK

In the case of `O=C(/C=C/c1ccc(O)c(O)c1)O[C@H](C(=O)O)[C@H](OC(=O)/C=C/c1ccc(O)c(O)c1)C(=O)O` [D-chicoric acid], the mechanism of inhibition result in test [1] was “noncompetitive partial inhibition”.
In the case of `C=C(C)[C@@H]1CC[C@]2(COC(=O)CCC(=O)O)CC[C@]3(C)[C@H](CC[C@@H]4[C@@]5(C)CC[C@H](O)C(C)(C)[C@@H]5CC[C@]43C)[C@@H]12` [Compound 7, 28-hemisuccinylbetulin], in test [2], the Ki entry is “sub-micromolar” and the mechanism of inhibition entry is recorded as “competitive”. In addition, the “protection against BoNT/A (intracellular SNAP-25 cleavage)” value in test [3] is “did not show any protection; also recorded: did not show inhibitory activity; also recorded: did not demonstrate protection”.
Consider `C=C(C)[C@@H]1CC[C@]2(C(=O)O)CC[C@]3(C)[C@H](CC[C@@H]4[C@@]5(C)CC[C@H](O)C(C)(C)[C@@H]5CC[C@]43C)[C@@H]12` [Compound 18, betulinic acid], for which, in test [2], the “fold less potent than 7 (Ki)” value was roughly 18 fold and the mechanism of inhibition result is recorded as “competitive”.
With `C=C(C)[C@@H]1CC[C@]2(COC(=O)COc3cc(C(C)C)ccc3C)CC[C@]3(C)[C@H](CC[C@@H]4[C@@]5(C)CC[C@H](O)C(C)(C)[C@@H]5CC[C@]43C)[C@@H]12` [Compound 8, betulinyl 28-carboxymethoxycarvacrolate], in test [2], the “fold less potent than 7 (Ki)” value is given as “about 16 fold” and the mechanism of inhibition result is listed as “competitive”.
